# In patent US12134788B2, “Engineered prephenate dehydrogenases and arogenate dehydrogenases and methods of using the same” (Wisconsin Alumni Research Foundation, priority 2017, dated 2024):
# Changes are numbered by the printed parent chain.
# Legend:
# [1] = test system: SynADH, Synechocystis sp. PCC 6803 arogenate dehydrogenase; details: cited from earlier work
# [2] = biological target: Glycine max GmPDH1 variant M219T (Glycine max, UniProt I1MYY4, M219T); assay: ADH and PDH assay: steady-state kinetics and Tyr inhibition, GmPDH1 M219T; assay type: biochemical, Glycine max (soybean); details: 0-8 mM L-Tyr
# Glycine max GmPDH1 variant M219T, sequence (I1MYY4 1-271 M219T): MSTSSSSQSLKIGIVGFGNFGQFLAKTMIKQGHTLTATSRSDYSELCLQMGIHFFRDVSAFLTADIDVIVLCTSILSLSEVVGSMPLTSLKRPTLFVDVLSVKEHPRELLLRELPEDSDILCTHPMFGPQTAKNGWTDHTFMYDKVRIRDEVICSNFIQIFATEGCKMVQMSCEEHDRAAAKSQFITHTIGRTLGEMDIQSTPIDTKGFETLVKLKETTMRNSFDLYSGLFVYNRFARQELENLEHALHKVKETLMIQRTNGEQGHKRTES
# Procedure: (§1) Kinetic parameters of purified recombinant proteins were determined from assays conducted at varying arogenate (19.5 μM-5 mM) and prephenate concentration (23.4 μM-6 mM). Standard assay conditions were 25 mM HEPES pH 7.6, 50 mM KCl and 10% (v/v) ethylene glycol, and 0.5 mM NADP^+ with varied substrate, concentrations. Reactions were initiated by addition of enzyme and incubated at 37° C. monitored every 10-15 seconds at […] using a microplate reader (Tecan Genios). Kinetic parameters were determined by fitting initial velocity data to the Michaelis-Menten equation using the Origin software (OriginLab).
# (§2) Arogenate was prepared by enzymatic conversion of prephenate (Sigma-Aldrich) as previously reported^56. For Tyr inhibition assays, Tyr was dissolved in a slightly basic solution (0.025 N NaOH) due to solubility issues, thus the concentration of lysis buffer was increased to 500 mM HEPES final concentration to buffer against the changes by addition of Tyr in the reaction. Reactions containing varying amounts of Tyr (10 μM-8 mM) with 0.5 mM NADP^+ and either 1 mM arogenate or 0.8 mM prephenate were monitored as above.
# [3] = biological target: T1, Glycine max GmPDH1 variant N222D, SEQ ID NO: 2 (Glycine max, UniProt I1MYY4, N222D); assay: ADH and PDH assay: steady-state kinetics and Tyr inhibition, GmPDH1 N222D; assay type: biochemical, Glycine max (soybean); details: IC50^Tyr, 0.5 mM NADP^+
# T1 sequence (I1MYY4 1-271 N222D): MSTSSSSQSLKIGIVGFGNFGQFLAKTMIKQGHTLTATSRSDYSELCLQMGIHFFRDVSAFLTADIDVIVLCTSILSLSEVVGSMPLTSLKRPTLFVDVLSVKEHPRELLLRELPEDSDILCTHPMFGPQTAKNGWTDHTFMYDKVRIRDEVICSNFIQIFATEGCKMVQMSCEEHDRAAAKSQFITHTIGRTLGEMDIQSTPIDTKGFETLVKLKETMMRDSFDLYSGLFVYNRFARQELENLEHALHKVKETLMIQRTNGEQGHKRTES
# Procedure: as §1, §2
# [4] = biological target: T2, SolyncADH (Slycopersicum06g050630), tomato noncanonical arogenate dehydrogenase, wild type (Solanum lycopersicum, UniProt K4C5K7); assay: ADH and PDH assay: steady-state kinetics and Tyr inhibition, SolyncADH wild type; assay type: biochemical
# T2 construct: wild type
# T2 sequence (K4C5K7 1-272): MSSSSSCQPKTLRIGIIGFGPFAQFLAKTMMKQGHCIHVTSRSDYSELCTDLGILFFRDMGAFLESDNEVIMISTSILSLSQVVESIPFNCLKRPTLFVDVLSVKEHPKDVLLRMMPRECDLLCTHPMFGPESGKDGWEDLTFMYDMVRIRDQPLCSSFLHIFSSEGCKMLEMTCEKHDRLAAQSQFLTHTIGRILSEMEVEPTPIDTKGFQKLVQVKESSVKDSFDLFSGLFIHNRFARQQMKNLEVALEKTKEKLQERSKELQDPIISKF
# Procedure: as §1, §2
# [5] = biological target: T3, Medicago truncatula MtncADH variant D220C, SEQ ID NO: 10 (Medicago truncatula, UniProt A0A217FAR3, D220C); assay: ADH and PDH assay: steady-state kinetics and Tyr inhibition, MtncADH D220C; assay type: biochemical
# T3 construct: D220C by site-directed mutagenesis
# T3 sequence (A0A217FAR3 1-266 D220C): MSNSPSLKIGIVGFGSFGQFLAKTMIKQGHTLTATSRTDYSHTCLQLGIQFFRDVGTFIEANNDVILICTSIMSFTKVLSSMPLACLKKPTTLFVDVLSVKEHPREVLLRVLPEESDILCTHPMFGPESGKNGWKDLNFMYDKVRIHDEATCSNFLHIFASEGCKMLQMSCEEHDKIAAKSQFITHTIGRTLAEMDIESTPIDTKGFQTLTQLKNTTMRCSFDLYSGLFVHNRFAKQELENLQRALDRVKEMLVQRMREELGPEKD
# Procedure: as §1, §2
# [6] = biological target: T4, Solanum lycopersicum SolyncADH variant D224N (Solanum lycopersicum, UniProt K4C5K7, D224N); assay: ADH and PDH assay: steady-state kinetics and Tyr inhibition, SolyncADH D224N; assay type: biochemical, Solanum lycopersicum (tomato); details: versus wild-type; ADH activity, 0-8 mM Tyr
# T4 construct: D224N by site-directed mutagenesis
# T4 sequence (K4C5K7 1-272 D224N): as the sequence (K4C5K7 1-272) above, with D224N counted along it
# Procedure: as §1, §2
# [7] = biological target: T5, MtPDH (MtPDH1; Mt3g071980), Medicago truncatula prephenate dehydrogenase, wild type (Medicago truncatula, UniProt A0A0A0R205); assay: ADH and PDH assay: steady-state kinetics and Tyr inhibition, MtPDH wild type; assay type: biochemical
# T5 sequence (A0A0A0R205 1-268): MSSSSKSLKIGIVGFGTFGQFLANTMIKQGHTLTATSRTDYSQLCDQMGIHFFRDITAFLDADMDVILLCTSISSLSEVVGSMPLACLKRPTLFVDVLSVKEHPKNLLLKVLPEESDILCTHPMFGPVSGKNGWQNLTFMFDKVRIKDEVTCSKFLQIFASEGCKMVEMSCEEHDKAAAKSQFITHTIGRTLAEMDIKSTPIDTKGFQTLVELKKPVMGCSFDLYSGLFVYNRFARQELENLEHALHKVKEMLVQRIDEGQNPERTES
# Procedure: as §1
# as §2, with “Reactions containing varying amounts of Tyr (10 μM-8 mM) with 0.5 mM NADP^+ and either 1 mM arogenate or 0.8 mM prephenate were monitored as above.” left out
# [8] = biological target: T6, MtncADH (Mt5g083530), Medicago truncatula noncanonical arogenate dehydrogenase, wild type (Medicago truncatula, UniProt A0A217FAR3); assay: ADH and PDH assay: steady-state kinetics and Tyr inhibition, MtncADH wild type; assay type: biochemical; details: for IC50: IC50^Tyr, 0.5 mM NADP^+
# T6 construct: wild type
# T6 sequence (A0A217FAR3 1-266): T3 sequence (A0A217FAR3 1-266 D220C) with C220D
# Procedure: as §1, §2
# [9] = test system: AaPDH, A. aeolicus prephenate dehydrogenase; details: cited from earlier work
# [10] = biological target: Arabidopsis thaliana AtADH2 variant D241N, SEQ ID NO: 12 (Arabidopsis thaliana, UniProt Q9LMR3, D275N); assay: Tyr inhibition of AtADH2 D241N; assay type: biochemical; details: versus wild-type; ADH activity, 0-8 mM Tyr
# Arabidopsis thaliana AtADH2 variant D241N, SEQ ID NO: 12, sequence (Q9LMR3 37-358 D275N): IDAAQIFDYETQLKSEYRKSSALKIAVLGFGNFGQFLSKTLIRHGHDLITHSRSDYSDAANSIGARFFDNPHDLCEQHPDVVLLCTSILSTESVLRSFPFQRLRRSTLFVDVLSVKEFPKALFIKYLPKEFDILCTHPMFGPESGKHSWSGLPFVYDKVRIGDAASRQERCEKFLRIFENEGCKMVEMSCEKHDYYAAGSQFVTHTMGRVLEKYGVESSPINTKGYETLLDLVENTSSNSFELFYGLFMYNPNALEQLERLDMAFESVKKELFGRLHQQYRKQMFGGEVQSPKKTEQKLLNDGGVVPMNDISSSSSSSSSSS
# Procedure: as §1, §2
# [11] = biological target: Glycine max GmPDH1 variant N222A (Glycine max, UniProt I1MYY4, N222A); assay: ADH and PDH assay: steady-state kinetics and Tyr inhibition, GmPDH1 N222A; assay type: biochemical, Glycine max (soybean); details: 0-8 mM L-Tyr
# Glycine max GmPDH1 variant N222A, sequence (I1MYY4 1-271 N222A): as the sequence (I1MYY4 1-271 M219T) above, with T219M, N222A counted along it
# Procedure: as §1, §2
# [12] = test system: Peanut PDH/ADH (AipaensisVYE8T), Arachis ipaensis, wild type; assay: ADH and PDH assay: steady-state kinetics and Tyr inhibition, peanut PDH/ADH; assay type: biochemical; details: 0-8 mM L-Tyr
# Procedure: as §1, §2
smiles,measurement,setting,value
"N[C@@H](Cc1ccc(O)cc1)C(=O)O [Tyr, L-Tyrosine]",Tyr sensitivity,[1],Tyr insensitive
same,inhibition by Tyr,[2],not inhibited by Tyr
same,IC50,[3]; substrate arogenate (1 mM),4.7 ± 0.4 mM
same,IC50,[3]; substrate prephenate (0.8 mM),5.3 ± 0.4 mM
same,IC50,[4],12.8 mM
same,IC50,[5],7.7 ± 1.5 mM
same,sensitivity to Tyr inhibition,"[5]; versus wild-type, ADH activity, 0-8 mM Tyr",significantly less sensitive to Tyr inhibition
same,sensitivity to Tyr inhibition,[6],significantly less sensitive to Tyr inhibition
same,IC50,[7],32.1 ± 10 mM
same,feedback inhibition by Tyr,[7]; up to 8 mM Tyr in assays,insensitive to feedback inhibition by Tyr
same,IC50,[8]; substrate arogenate (1 mM),2.2 ± 0.5 mM
same,IC50,[8]; substrate prephenate (0.8 mM),0.6 ± 0.1 mM
same,"IC50 (Tyr), in words",[8]; sensitivity to Tyr,in the mM range
same,Tyr sensitivity,[9],sensitive to Tyr
same,sensitivity to Tyr inhibition,[10],significantly less sensitive to Tyr inhibition
same,inhibition by Tyr,[11],not inhibited by Tyr
same,Tyr inhibition,[12],insensitive to Tyr inhibition
